Test results reported in patent USRE47689E1, “Compounds for treating spinal muscular atrophy” (PTC Therapeutics, Inc., priority 2011, dated 2019).
Read-outs that look alike come from different tables or passages of the source.

What was measured:
[1] = tested on: SMN2 minigene (full length SMN2 minigene mRNA containing SMN2 exon 7); test: SMN2 minigene mRNA splicing RT-qPCR assay in cultured cells; format: cell-based, human; conditions: Homo sapiens, HEK293-H, read-out: EC1.5x for production of full length SMN2 mRNA
In short: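 Lysates → one-step RT-qPCR, minigene-specific primers (0.4 μM final) + GAPDH multiplex, 40 cycles. FL/GAPDH vs DMSO; EC1.5x, star-binned.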

Smn protein = Smn protein assay in cultured cells (SMN HTRF); format: cell-based, human; conditions: for EC1.5x (concentration giving 1.5-fold Smn protein increase): read-out: EC1.5x for Smn protein expression
In short: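 Smn in SMA fibroblast lysates, measured by anti-SMN HTRF after 48 h compound exposure; EC1.5x from fold change over vehicle.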

[2] = HEK293H cells stably transfected with SMN2-A minigene, 24 hours, 7-point concentration curve, 1.5-fold relative to vehicle-treated cells
[3] = SMA patient fibroblast cells, 48 hours, 7-point concentration data, fold increase relative to vehicle control (SMN HTRF)
[4] = SMA Type 1 patient fibroblast cells (GM03813), 48 hours, 7-point concentration curve, SMN HTRF, concentration producing 1.5 times Smn protein vs DMSO vehicle control

melting point | SMILES | EC (1.5-fold) [1, 2] | maximum fold (Fold) increase of Smn protein (Smn protein; [3]) | EC1.5x (concentration giving 1.5-fold Smn protein increase) (Smn protein; [4]) | EC (1.5-fold) ([1]; 24 h) | maximum fold (Fold) increase of Smn protein (Smn protein) | EC1.5x (concentration giving 1.5-fold Smn protein increase) (Smn protein)
253 to 255 °C | O=c1oc2cc(N3CCNCC3)ccc2cc1Nc1ccc(Cl)cn1 [Compound 65, 3-[(5-chloropyridin-2-yl)amino]-7-(piperazin-1-yl)-2H-chromen-2-one] | 0.3 to 1 µM | * (maximum fold increase of ≤1.2) |  |  |  | 
213 to 215 °C | Cc1nccn2cc(-c3cc4ccc(N5CCNCC5)cc4oc3=O)nc12 [Compound 571, 3-(8-methylimidazo[1,2-a]pyrazin-2-yl)-7-(piperazin-1-yl)-2H-chromen-2-one] | 0.3 to 1 µM | ** (fold increase between >1.2 and ≤1.35) |  |  |  | 
103 to 105 °C | COc1ccc(-c2cc3ccc(N4CCN[C@@H](C)C4)cc3oc2=O)c(OC)c1 [Compound 467, 3-(2,4-dimethoxyphenyl)-7-[(3S)-3-methylpiperazin-1-yl]-2H-chromen-2-one] | 3 to 30 µM | * (maximum fold increase of ≤1.2) |  |  |  | 
196 to 198 °C | Cc1cn2cc(-c3cc4ccc(N5C[C@H]6CCN(C)[C@H]6C5)cc4oc3=O)cc2c(C)n1 [Compound 755, 3-(1,3-dimethylpyrrolo[1,2-a]pyrazin-7-yl)-7-[(3aR,6aR)-1-methylhexahydropyrrolo[3,4-b]pyrrol-5(1H)-yl]-2H-chromen-2-one] | < 0.1 µM | *** (fold increase between >1.35 and ≤1.5) |  |  |  | 
251 to 256 °C | Cc1cc2cc(-c3cc4ccc(N5CCN[C@H](C)C5)cc4oc3=O)oc2c(C)n1 [Compound 806, 3-(5,7-dimethylfuro[2,3-c]pyridin-2-yl)-7-[(3R)-3-methylpiperazin-1-yl]-2H-chromen-2-one] | < 0.1 µM | ***** (fold increase >1.65) | < 300 nM |  |  | 
184 to 190 °C | Cc1csc(-c2cc3ccc(N4C[C@@H](C)NC[C@@H]4C)cc3oc2=O)n1 [Compound 299, 7-[(2S,5R)-2,5-dimethylpiperazin-1-yl]-3-(4-methyl-1,3-thiazol-2-yl)-2H-chromen-2-one] | 1 to 3 µM | * (maximum fold increase of ≤1.2) |  |  |  | 

The next lines start with the molecule.

SMILES | melting point | EC (1.5-fold) [1, 2] | maximum fold (Fold) increase of Smn protein (Smn protein; [3]) | EC1.5x (concentration giving 1.5-fold Smn protein increase) (Smn protein; [4]) | EC (1.5-fold) ([1]; 24 h) | maximum fold (Fold) increase of Smn protein (Smn protein) | EC1.5x (concentration giving 1.5-fold Smn protein increase) (Smn protein)
C[C@H]1CN(c2ccc3cc(-c4cn5cccnc5n4)c(=O)oc3c2)CCN1 [Compound 170, 3-(imidazo[1,2-a]pyrimidin-2-yl)-7-[(3S)-3-methylpiperazin-1-yl]-2H-chromen-2-one] | 282 to 285 °C | 0.3 to 1 µM | ** (fold increase between >1.2 and ≤1.35) |  |  |  | 
Cc1cn2cc(-c3cc4ccc(C5CCN(CCCF)CC5)cc4oc3=O)nc2cn1 [Compound 917, 7-[1-(3-fluoropropyl)piperidin-4-yl]-3-(6-methylimidazo[1,2-a]pyrazin-2-yl)-2H-chromen-2-one] | 224 to 234 °C | < 0.1 µM | ***** (fold increase >1.65) | < 300 nM |  |  | 
CCN1CCN(c2ccc3cc(-c4cn5cc(C)sc5n4)c(=O)oc3c2)CC1 [Compound 151, 7-(4-ethylpiperazin-1-yl)-3-(2-methylimidazo[2,1-b][1,3]thiazol-6-yl)-2H-chromen-2-one] | 205 to 208 °C | 3 to 30 µM | * (maximum fold increase of ≤1.2) |  |  |  | 
C[C@H]1CN(c2ccc3cc(-c4cc5ccccc5o4)c(=O)oc3c2)CCN1 [Compound 603, 3-(1-benzofuran-2-yl)-7-[(3S)-3-methylpiperazin-1-yl]-2H-chromen-2-one] | 192 to 194 °C | 0.3 to 1 µM | * (maximum fold increase of ≤1.2) |  |  |  | 
Cc1ccc2cc(-c3cc4ccc(N5C[C@@H](C)N[C@@H](C)C5)cc4oc3=O)cn2n1 [Compound 639, 7-[(3R,5S)-3,5-dimethylpiperazin-1-yl]-3-(2-methylpyrrolo[1,2-b]pyridazin-6-yl)-2H-chromen-2-one] | 105 to 108 °C | < 0.1 µM | * (maximum fold increase of ≤1.2) |  |  |  | 
Cc1nccn2cc(-c3cc4ccc(N5C[C@@H](C)N[C@@H](C)C5)cc4oc3=O)cc12 [Compound 554, 7-[(3R,5S)-3,5-dimethylpiperazin-1-yl]-3-(1-methylpyrrolo[1,2-a]pyrazin-7-yl)-2H-chromen-2-one] | 200 to 203 °C | < 0.1 µM | ***** (fold increase >1.65) | < 300 nM |  |  | 
Cc1cn2cc(-c3cc4ccc(N5CCN(C6CCC6)CC5)cc4oc3=O)nc2c(C)n1 [Compound 822, 7-(4-cyclobutylpiperazin-1-yl)-3-(6,8-dimethylimidazo[1,2-a]pyrazin-2-yl)-2H-chromen-2-one] | 260 to 262 °C | < 0.1 µM | **** (fold increase between >1.5 and ≤1.65) | < 300 nM |  |  | 
O=c1oc2cc(N3CCN4CCC3CC4)ccc2cc1-c1cn2ccsc2n1 [Compound 438, 7-(1,4-diazabicyclo[3.2.2]non-4-yl)-3-(imidazo[2,1-b][1,3]thiazol-6-yl)-2H-chromen-2-one] | > 300 °C |  |  |  | 0.1 to 0.3 µM | *** (key: *: maximum fold increase of ≤1.2; **: fold increase between >1.2 and ≤1.35; ***: fold increase between >1.35 and ≤1.5; ****: fold increase between >1.5 and ≤1.65; *****: fold increase >1.65) | 1000 to 3000 nM
Cc1cn2cc(-c3cc4ccc(N5CC[C@H]6CNC[C@H]65)cc4oc3=O)nc2c(C)n1 [Compound 687, 3-(6,8-dimethylimidazo[1,2-a]pyrazin-2-yl)-7-[(3aS,6aS)-hexahydropyrrolo[3,4-b]pyrrol-1(2H)-yl]-2H-chromen-2-one] | 243 to 253 °C | < 0.1 µM | *** (fold increase between >1.35 and ≤1.5) | 1000 to 3000 nM |  |  | 
O=c1oc2cc(N3CCNCC3)cc(F)c2cc1-c1nc2c(F)cccc2o1 [Compound 292, 5-fluoro-3-(4-fluoro-1,3-benzoxazol-2-yl)-7-(piperazin-1-yl)-2H-chromen-2-one] | 225 to 230 °C | 0.3 to 1 µM | *** (fold increase between >1.35 and ≤1.5) |  |  |  | 
Cc1cn2cc(-c3cc4ccc(N5CCC(NC(CO)CO)CC5)cc4oc3=O)nc2c(C)n1 [Compound 929, 7-{4-[(1,3-dihydroxypropan-2-yl)amino]piperidin-1-yl}-3-(6,8-dimethylimidazo[1,2-a]pyrazin-2-yl)-2H-chromen-2-one] | 251 to 256 °C | < 0.1 µM | *** (fold increase between >1.35 and ≤1.5) | 1000 to 3000 nM |  |  | 
COc1ccc(-c2cc3ccc(N4CCNCC4)cc3oc2=O)c(OC)c1 [Compound 465, 3-(2,4-dimethoxyphenyl)-7-(piperazin-1-yl)-2H-chromen-2-one] | 171 to 173 °C | 3 to 30 µM | * (maximum fold increase of ≤1.2) |  |  |  | 
